These results are taken from ChEMBL document CHEMBL1201862, “PubChem BioAssay data set” (2004).

Each structure is given as a SMILES string.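 Following 48 hours of exposure in 96-well plates, responses at five concentrations were used to interpolate endpoints linearly. The concentration for 50% growth inhibition is given as GI50.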 Activity calls are given as the source filed them. Cut-off read from the data, not from the text of the source: active = GI50 up to about 1.1 µM and inactive = higher. A value given as a limit tells only on which side of the number the result lay.

Among the test systems are A549; ACHN; CCRF-CEM; COLO 205; DU-145; HCC 2998; HCT-116; HL-60; IGROV-1; MDA-MB-231; NCI-H23; OVCAR-4; OVCAR-5; OVCAR-8; RPMI-8226; SK-OV-3; T47D; TK-10; UACC-257; SF-539.
What all share (assay): inhibition of tumour cell growth, NCI panel, 48 h

`COC(=O)N1C2C(C[C@@]1(C)C(=O)OC)c1ccccc1N2S(=O)(=O)c1ccccc1` (some centres undefined): the GI50 with A549, in the test on ACHN, in the test with CCRF-CEM, with COLO 205, in the test on DU-145 and with HCC 2998 was > 100 µM (inactive) throughout. In addition, the GI50 with HCT-116, in the test with HL-60, in the test with IGROV-1, in the test on MDA-MB-231, with NCI-H23 and with OVCAR-4 was > 100 µM (inactive) in each case. In addition, the GI50 in the test with OVCAR-5, in the test on OVCAR-8, in the test on RPMI-8226, with SK-OV-3, in the test on T47D and in the test on TK-10 was > 100 µM (inactive) in each case. In the test on UACC-257, the GI50 was > 100 µM (inactive).

For the molecule `CC(C)(C)OC(=O)NC(CCC(=O)OCc1ccccc1)C(=O)NCCCO` (centres undefined), the GI50 with A549, with ACHN, in the test on CCRF-CEM, in the test with DU-145, with HCC 2998 and in the test on HCT-116 was > 100 µM (inactive) in each case. The GI50 in the test on HL-60, in the test on IGROV-1, in the test on MDA-MB-231, in the test with NCI-H23, in the test with OVCAR-4 and in the test with OVCAR-5 was > 100 µM (inactive) each time. The GI50 with OVCAR-8, in the test on RPMI-8226, in the test on SF-539, with SK-OV-3, in the test with T47D and with TK-10 was > 100 µM (inactive) throughout. Further, in the test with UACC-257, the GI50 is > 100 µM (inactive).

Consider `O=C(Nc1ccccc1C(=O)O)/C(=C/c1ccccc1)NC(=O)c1ccccc1`, for which the GI50 in the test with A549, in the test with ACHN, in the test on CCRF-CEM, with COLO 205, in the test on DU-145 and with HCC 2998 was > 100 µM (inactive) each time. The GI50 with HCT-116, in the test with HL-60, with IGROV-1, with MDA-MB-231, in the test with NCI-H23 and with OVCAR-5 was > 100 µM (inactive) in each case. Also, the GI50 with OVCAR-8, in the test on RPMI-8226, with SF-539, with SK-OV-3, with T47D and in the test on UACC-257 was > 100 µM (inactive) in each case.

Consider `CNC(=O)N1CN(c2ccccc2)C2(CCN(CCCC(=O)c3ccc(F)cc3)CC2)C1=O`, for which the GI50 in the test with A549 was 45.1 µM (inactive); in the test on ACHN it was 11.1 µM (inactive); in the test on CCRF-CEM, 13.9 µM (inactive); with COLO 205, 4.56 µM (inactive); in the test with DU-145, 11.3 µM (inactive); with HCC 2998, 7.82 µM (inactive). Moreover, the GI50 in the test with HCT-116 was 7.59 µM (inactive); in the test with HL-60, 15.2 µM (inactive); with IGROV-1, 19.5 µM (inactive); in the test with MDA-MB-231, 25.2 µM (inactive); in the test with NCI-H23, 23.4 µM (inactive); with OVCAR-5, 11.7 µM (inactive). Moreover, the GI50 with OVCAR-8 is 31.5 µM (inactive); in the test with RPMI-8226 it was 14.1 µM (inactive); in the test on SF-539 it was 13.9 µM (inactive); with SK-OV-3, 31.8 µM (inactive); in the test on T47D, 4.98 µM (inactive); in the test with TK-10 it was 18 µM (inactive). Further, the GI50 with UACC-257 is 7.64 µM (inactive).

`O=C(CC(=O)Nc1ccccc1)N/N=C/c1cc(/N=N/c2ccc(Br)cc2)ccc1O`: the GI50 in the test on A549 is > 10 µM (inactive); in the test on CCRF-CEM, 1.54 µM (inactive); with COLO 205, 3.93 µM (inactive); with DU-145, 5.16 µM (inactive); with HCC 2998, 3.25 µM (inactive); in the test on HL-60 it was 2.44 µM (inactive). Besides, the GI50 in the test with IGROV-1 is 4.21 µM (inactive); in the test with MDA-MB-231 it was 3.26 µM (inactive); with NCI-H23, 2.6 µM (inactive); in the test on OVCAR-4 it was 2.09 µM (inactive); with OVCAR-8 it was 3.93 µM (inactive); in the test with RPMI-8226, 3.68 µM (inactive). Moreover, the GI50 is 4.05 µM (inactive) with SF-539; 8.87 µM (inactive) in the test with SK-OV-3; 4.38 µM (inactive) in the test on T47D; 4.2 µM (inactive) with TK-10; 2.08 µM (inactive) in the test on UACC-257.

In the case of `COCC([C@@H](O)C(O)C(=O)NCC[C@@H](C)c1nc(/C=C/CC2OC3(C[C@H](O)C2C)OC(C(C[C@H](O)C(C)[C@H](O)C(C)/C=C(C)/C(C)=C/C=C/C(C)=C/C#N)OC)[C@@H](OP(=O)(O)O)C3(C)C)co1)N(C)C` (some centres undefined), the GI50 was 0.0004 µM (active) in the test on A549; 0.000199 µM (active) in the test on ACHN; 0.000171 µM (active) with COLO 205; 0.000182 µM (active) in the test on DU-145; 0.000185 µM (active) with HCC 2998; 0.000177 µM (active) with HCT-116. Also, the GI50 is 0.00048 µM (active) in the test with HL-60; 0.000161 µM (active) in the test on IGROV-1; 0.000242 µM (active) in the test with MDA-MB-231; 0.000762 µM (active) in the test with NCI-H23; 0.00137 µM (active) in the test with OVCAR-4; 0.000188 µM (active) in the test with OVCAR-5. Also, the GI50 was 0.000208 µM (active) in the test with OVCAR-8; 0.000272 µM (active) in the test with RPMI-8226; 0.000189 µM (active) in the test with SF-539; 0.000474 µM (active) with SK-OV-3; 0.000703 µM (active) with T47D; 0.000115 µM (active) in the test with TK-10. In the test with UACC-257, the GI50 was 0.00105 µM (active).

For the molecule `COC(=O)C12C3C4C1C1C2C3C41C(=O)NC(C)(C)CC(=O)O` (centres undefined), the GI50 in the test with A549, in the test on ACHN, in the test with CCRF-CEM, with COLO 205, in the test on DU-145 and with HCC 2998 was > 100 µM (inactive) in each case. Also, the GI50 with HCT-116, with HL-60, with IGROV-1, with MDA-MB-231, in the test on NCI-H23 and with OVCAR-4 was > 100 µM (inactive) in each case. The GI50 in the test on OVCAR-5, in the test on OVCAR-8, in the test on RPMI-8226, in the test on SF-539, with T47D and in the test with TK-10 was > 100 µM (inactive) throughout. In addition, in the test on UACC-257, the GI50 is > 100 µM (inactive).

In the case of `CC#CCCN(CC#N)Cc1ccccc1`, the GI50 in the test on A549 is > 100 µM (inactive); in the test on ACHN, 21.3 µM (inactive); in the test on CCRF-CEM, > 100 µM (inactive); with COLO 205, > 100 µM (inactive); with DU-145, > 100 µM (inactive); with HCC 2998 it was > 100 µM (inactive). Further, the GI50 with HCT-116, in the test on HL-60, in the test on IGROV-1, with MDA-MB-231, with NCI-H23 and with OVCAR-4 was > 100 µM (inactive) in each case. Moreover, the GI50 in the test with OVCAR-5, in the test with OVCAR-8, in the test with RPMI-8226, in the test with SK-OV-3, in the test on T47D and in the test with TK-10 was > 100 µM (inactive) each time. Besides, the GI50 with UACC-257 was > 100 µM (inactive).

As to `COc1ccc2c(c1)CC[C@@H]1[C@@H]2CC[C@]2(C)C(=O)/C(=C/c3ccc(N(C)C)cc3)C[C@@H]12`, the GI50 in the test with A549 is 41.9 µM (inactive); with ACHN, 48.9 µM (inactive); with COLO 205 it was > 100 µM (inactive); in the test on DU-145, > 100 µM (inactive); with HCC 2998, > 100 µM (inactive); in the test on HCT-116, 44 µM (inactive). In addition, the GI50 in the test on HL-60 was > 100 µM (inactive); in the test with MDA-MB-231 it was 55.8 µM (inactive); in the test with NCI-H23, 33 µM (inactive); in the test with OVCAR-4 it was 37.2 µM (inactive); in the test with OVCAR-5 it was > 100 µM (inactive); in the test on RPMI-8226, > 100 µM (inactive). The GI50 is > 100 µM (inactive) in the test with SF-539, 53.7 µM (inactive) in the test on SK-OV-3, 44.1 µM (inactive) in the test on T47D and 33.2 µM (inactive) in the test on TK-10.

Turning to `COC(=O)[C@H](Cc1c[nH]c2ccccc12)NP(=O)(OCCC#N)OCC1OC(n2cc(C)c(=O)[nH]c2=O)CC1N=[N+]=[N-]` (some centres undefined), the GI50 in the test on A549 is > 100 µM (inactive); with ACHN it was 50.8 µM (inactive); with CCRF-CEM it was > 100 µM (inactive); in the test on COLO 205 it was > 100 µM (inactive); in the test with DU-145, > 100 µM (inactive); with HCC 2998, > 100 µM (inactive). In addition, the GI50 in the test on HCT-116, with HL-60, in the test with IGROV-1, with MDA-MB-231, in the test with NCI-H23 and with OVCAR-4 was > 100 µM (inactive) each time. Besides, the GI50 in the test on OVCAR-5, in the test with OVCAR-8, in the test with RPMI-8226, in the test on SK-OV-3, in the test with T47D and in the test with TK-10 was > 100 µM (inactive) throughout. Besides, the GI50 with UACC-257 is > 100 µM (inactive).
